Source: patent US20230301947A1, “COMPOUND FOR PREVENTING AND TREATING PSYCHIATRIC DISORDERS AND USE THEREOF” (SHANGHAI INSTITUTE OF MATERIA MEDICA, CHINESE ACADEMY OF …, priority 2020, published 2023)

Assays:
TREK-1 ion channel = molecular target: T1, TREK-1 ion channel (Homo sapiens, UniProt O95069); assay: Whole-cell membrane clamp recording of TREK-1 channel current in transfected CHO-K1 cells; type: cell-based
T1 construct: expressed in transfected cells; host or cells: CHO-K1
T1 sequence (O95069 1-426): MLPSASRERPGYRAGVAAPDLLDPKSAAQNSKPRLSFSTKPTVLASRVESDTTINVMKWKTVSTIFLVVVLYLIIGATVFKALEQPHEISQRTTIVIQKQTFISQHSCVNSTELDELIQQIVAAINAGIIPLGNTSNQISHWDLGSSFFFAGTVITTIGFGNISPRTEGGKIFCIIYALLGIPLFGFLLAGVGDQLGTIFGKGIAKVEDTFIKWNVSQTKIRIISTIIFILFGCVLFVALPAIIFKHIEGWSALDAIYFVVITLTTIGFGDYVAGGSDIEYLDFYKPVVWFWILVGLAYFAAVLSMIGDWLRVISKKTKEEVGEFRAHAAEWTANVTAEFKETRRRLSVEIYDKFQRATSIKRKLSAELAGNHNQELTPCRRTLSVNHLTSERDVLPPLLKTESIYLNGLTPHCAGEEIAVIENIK
Procedure: Cells were transfected using a cationic liposome transfection method, and the target gene TREK-1 plasmid protein was heterologously expressed in CHO-K1 cells according to the operating standard instructions of Lipo3000 transfection reagent. The ion channel protein was expressed in the cells for 24-48 h followed by electrophysiological experiments.
Whole-cell membrane clamp recording mode was used for electrophysiological experiments. The transfected cells were placed in a bath containing extracellular fluid, the resistance of the drawn electrode is 3-7 MΩ, the electrode was filled with intracellular fluid, the polished electrode was used to contact the cell membrane, the positive voltage was removed and the negative voltage was gently applied to form a high impedance seal, and then the cell membrane was broken by continuing to apply negative voltage, i.e. whole-cell recording mode was formed. The sampling frequency of the electrophysiological amplifier was 10 kHz, and the data sampling was controlled using a DigiData 1440A conversion interface. The software used for collecting and analyzing whole-cell recording experimental data is Clamfit 10.7, the software used for data analysis and graphing is Origin 8.1, and the software used for statistical analysis is SPSS.
CLA096: Three doses were set up in this example. The drug was firstly dissolved in DMSO and then diluted with tri-distilled water to […]: 5 µM, 10 µM and 20 µM, respectively.
The experiment was performed using a cell membrane clamp method to record the current of TREK-1 ion channel in whole cells. Protocol A0 was chosen to record the currents of cells at -80 mV, -60 mV, -40 mV, -20 mV, 0 mV, 20 mV, 40 mV, 60 mV and 80 mV, and Protocol A0 was repeated with different concentrations such as 5 µM, 10 µM and 20 µM of CLA096 being perfused, respectively. After administration, whether it can be eluted was tested.

C57 mice [1] = assay: Forced swimming experiment in normal mice; type: in vivo; conditions: C57 male mice, intraperitoneal; for immobility time in forced swimming test: compared with vehicle group
Procedure: (§1) The forced swimming test system is primarily used in antidepressant studies.
(§2) Experimental operation: Mice were individually placed in a cylindrical glass tank 30 cm high and 20 cm in diameter, with a water depth of 15 cm (20 cm for rats), so that the mice are unable to escape from the glass tank and their feet and tails can not touch the bottom of the tank. The water temperature was 23° C.-25° C. The mice were filmed for 6 minutes after entering the water. Since most of the mice were very active in the first two minutes, the last 4 minutes of immobility time were calculated (criteria for determining immobility: the mice stopped struggling in the water, immobility and fine limb movements to maintain balance or float). Groups of mice were operated in parallel.
CLA096: Three doses were set up in this example, the low, medium and high doses were 5 mg/kg, 20 mg/kg and 40 mg/kg, respectively. The compound was dissolved in 0.5% Tween-40 and sonicated, and should be used right after it was ready.
Fluoxetine (FLX): FLX with a dose of 10 mg/kg; dissolved in double distilled water, and should be used right after it was ready.

C57 mice [2] = assay: Novelty-suppressed feeding experiment in normal mice; type: in vivo; conditions: C57 male mice, intraperitoneal
Procedure: Novelty-suppressed feeding experiment (NSF) is a conflict between feeding occurred in a novel environment in a state of starvation after fasting and fear of novel environment. Long-term administration of antidepressant drugs can reduce the conflict response ability of animals, which is manifested by shortened incubation period of the start of feeding. This model is currently widely used in the evaluation of antidepressant and anti-anxiety efficacy.
The experimental equipment was a 35 cm*35 cm*30 cm (L*W*H) open box, which was overspread with substrate, and a white filter paper with a diameter of 5 cm was placed in the open box, and 2 pieces of food were placed in the middle of the filter paper. The animals were fasted for 12 h before the administration of the drug.
Two hours before the behavioral test, the animal were moved into the functional room for 2 h to acclimatize. […] The animal were placed from the edge of the experimental open box, and the animal were regarded as successful feeding if their mouths touched the food within 10 min, and then the animal were removed immediately and the time of successful feeding (i.e. Novelty latency) was calculated. The animal were then placed in the normal feeding cage and the time from placement to feeding (i.e. Habituation latency) was also calculated. […] The whole experiment was recorded by camera, and the data were processed and analyzed offline. […]

SD rats [3] = assay: Forced swimming test in rats (control and ACTH-induced refractory depression model); type: in vivo; conditions: 20 mg/kg intraperitoneal, tested 30 min after administration; for antidepressant effect in forced swimming: ACTH group SD rats (refractory depression model)
Procedure: as §1, §2
An animal model of refractory depression was induced in SD rats by continuous intraperitoneal injection of adrenocorticotropic hormone (ACTH) for 3 weeks. This model can block the effects of tricyclic antidepressants and some SSRIs antidepressants, but can not block the efficacy of ketamine and electroconvulsive therapy (ETC). Since ketamine and ETC have specific efficacy in refractory depression, this animal model can be used to preliminary evaluate whether the drug have efficacy in refractory depression.
1. SD rats in the model group (ACTG) were continuously injected with ACTH for 3 weeks (once/day), and the test drug was injected intraperitoneally 24 h after the last administration of ACTH. The rats in the control group (CON) were continuously injected intraperitoneally with 0.9% saline (once/day) and similarly the test drug was injected intraperitoneally 24 h after the last administration of saline.
3. After the open-field experiment, ACTH was continued to be injected, and after 24 h, the above test drug was injected intraperitoneally and forced swimming was tested 30 min after the administration.

SD rats [4] = assay: Open field test in rats (control and ACTH-induced refractory depression model); type: in vivo; conditions: normal animals and ACTH model animals (SD rats); 20 mg/kg intraperitoneal, tested 30 min after administration
Excerpt: Open field test, also known as the open box test, is a method to evaluate the autonomous behavior, exploratory behavior and anxiety-like behavior of experimental animals in a novel environment. The frequency and duration of the normal activities, the fear of the open environment and the exploration of the new environment and other behaviors of the experimental animals in the open box are used to reflect the autonomous behavior and exploratory behavior of the experimental animals in the unfamiliar environment. The results of the open-field experiments were analyzed to evaluate the depression and anxiety-like behaviors of the animals.
Experimental operation: the experimental animals were placed in the behavior room 2 hours before the experiment. The animals were placed in the center of the bottom of a black plastic box (size 100*100*45 cm) during the experiment, while video filming was performed. The experiment time was 10 minutes and was conducted in a quiet environment. […] The video was analyzed using the animal spontaneous activity analysis software to obtain information of central area activity time (anxiety-like behavior), total distance of activities (exercise ability), and number of wall climbing (novel environment exploratory behavior) and the like, which can be used to judge the depression or anxiety-like behavior of the animal and degree thereof. […]

mice = assay: 14-day subacute toxicity test in mice; type: in vivo; conditions: male and female mice; 5, 50 and 100 mg/kg intraperitoneal, once a day, 14 days
Procedure: Test drug configuration: CLA096: Three doses were set up: 5 mg/kg, 50 mg/kg and 100 mg/kg, respectively.

[5] = CLA096 5, 20, 40 mg/kg vs positive control fluoxetine

CN(Cc1ccccc1)C(=O)CN(c1ccc(Cl)cc1)S(C)(=O)=O [CLA096, N-benzyl-2-(N-(4-chlorophenyl)methylsulfonylamino)-N-methylacetamide]
inhibition rate of TREK-1 channel open current (TREK-1 ion channel; 5 µM CLA096): 0.75 ± 0.02
inhibition rate of TREK-1 channel open current (TREK-1 ion channel; 10 µM CLA096): 0.55 ± 0.05
inhibition rate of TREK-1 channel open current (TREK-1 ion channel; 20 µM CLA096): 0.59 ± 0.01
effect on forced swimming immobility time compared with fluoxetine (C57 mice [1]; [5]): significantly better than fluoxetine
immobility time in forced swimming test (C57 mice [1]; CLA096 5, 20 and 40 mg/kg): significantly reduces the immobility time of animals at all doses
effect on feeding latency compared with fluoxetine (C57 mice [2]; [5]): significantly better than fluoxetine
latency of feeding of fasted mice (novelty-suppressed feeding) (C57 mice [2]; CLA096 5, 20 and 40 mg/kg, compared with vehicle group): significantly reduced the latency value
antidepressant effect in forced swimming (SD rats [3]): remained significant
immobility time of forced swimming (SD rats [3]; control (CON) group SD rats): significantly reduced the immobility time
swimming time in forced swimming (SD rats [3]; control (CON) group SD rats): significantly increased the swimming time
total movement distance in open field (SD rats [4]): no significant difference
body weight change (mice): no significant changes in body weight

CNCCC(Oc1ccc(C(F)(F)F)cc1)c1ccccc1 (stereo not drawn) [Fluoxetine, reference compound]
immobility time in forced swimming test (C57 mice [1]; fluoxetine 10 mg/kg (table says 20)): significantly reduces the immobility time

CN(C)CCCN1c2ccccc2CCc2ccccc21 [Imipramine]
antidepressant effect in forced swimming (SD rats [3]): blocked
immobility time of forced swimming (SD rats [3]; control (CON) group SD rats): significantly reduced the immobility time

CNC1(c2ccccc2Cl)CCCCC1=O (stereo not drawn) [Ketamine]
antidepressant effect in forced swimming (SD rats [3]): remained significant
immobility time of forced swimming (SD rats [3]; control (CON) group SD rats): significantly reduced the immobility time
total movement distance in open field (SD rats [4]): no significant difference
